Source: ChEMBL document CHEMBL1201862, “PubChem BioAssay data set” (2004)
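Tested at 5 concentrations; 48 h exposure; 96-well plates; endpoints linearly interpolated, else capped at highest concentration. GI50 is the concentration that inhibits growth by half.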 The source made the active and inactive calls. Cut-off read from the data, not from the text of the source: active = GI50 up to about 1.1 µM and inactive = higher.

Experiments:
Assay in all cases: growth of human tumour cells (NCI), 48 h
[1] = tested on: 786-0
[2] = tested on: A549
[3] = tested on: ACHN
[4] = tested on: BT-549
[5] = tested on: CAKI-1
[6] = tested on: CCRF-CEM
[7] = tested on: COLO 205
[8] = tested on: DU-145
[9] = tested on: EKVX
[10] = tested on: HCC 2998
[11] = tested on: HCT-116
[12] = tested on: HCT-15
[13] = tested on: HOP-62
[14] = tested on: HT-29
[15] = tested on: Hs-578T
[16] = tested on: IGROV-1
[17] = tested on: K562
[18] = tested on: KM12
[19] = tested on: M14
[20] = tested on: MCF7
[21] = tested on: MDA-MB-231
[22] = tested on: MDA-MB-435
[23] = tested on: MDA-N
[24] = tested on: MOLT-4
[25] = tested on: Malme-3M
[26] = tested on: NCI-H226
[27] = tested on: NCI-H23
[28] = tested on: NCI-H460
[29] = tested on: NCI/ADR-RES
[30] = tested on: OVCAR-3
[31] = tested on: OVCAR-4
[32] = tested on: OVCAR-5
[33] = tested on: OVCAR-8
[34] = tested on: PC-3
[35] = tested on: RPMI-8226
[36] = tested on: RXF 393
[37] = tested on: SF-268
[38] = tested on: SF-295
[39] = tested on: SK-MEL-28
[40] = tested on: SK-MEL-2
[41] = tested on: SK-MEL-5
[42] = tested on: SK-OV-3
[43] = tested on: SN12C
[44] = tested on: SNB-19
[45] = tested on: SNB-75
[46] = tested on: SW-620
[47] = tested on: T47D
[48] = tested on: TK-10
[49] = tested on: U-251
[50] = tested on: UACC-257
[51] = tested on: UACC-62
[52] = tested on: UO-31

SMILES: COc1ccc(/N=N/C(=N/NC(=O)c2cc(Cl)ccc2C(=O)c2ccccc2)c2ccc(N(CCC#N)CCC#N)cc2C)cc1
- GI50 [1]: 18.5 µM (inactive)
- GI50 [2]: 18.8 µM (inactive)
- GI50 [3]: 25.6 µM (inactive)
- GI50 [4]: 29.4 µM (inactive)
- GI50 [5]: 21.3 µM (inactive)
- GI50 [6]: 4.54 µM (inactive)
- GI50 [7]: 17.6 µM (inactive)
- GI50 [8]: 19.5 µM (inactive)
- GI50 [9]: 16.1 µM (inactive)
- GI50 [10]: 18.9 µM (inactive)
- GI50 [11]: 13.1 µM (inactive)
- GI50 [12]: 13.9 µM
- GI50 [13]: 20.1 µM (inactive)
- GI50 [14]: 21.5 µM (inactive)
- GI50 [15]: 29.9 µM (inactive)
- GI50 [16]: 6.49 µM (inactive)
- GI50 [17]: 12.9 µM (inactive)
- GI50 [18]: 21.4 µM (inactive)
- GI50 [19]: 18.2 µM (inactive)
- GI50 [20]: 25.4 µM (inactive)
- GI50 [21]: 15.1 µM (inactive)
- GI50 [22]: 27.6 µM (inactive)
- GI50 [23]: 21.7 µM (inactive)
- GI50 [24]: 9.08 µM (inactive)
- GI50 [25]: 26.2 µM (inactive)
- GI50 [26]: 16.2 µM (inactive)
- GI50 [27]: 18 µM (inactive)
- GI50 [28]: 11.5 µM (inactive)
- GI50 [29]: 16.7 µM (inactive)
- GI50 [30]: 5.04 µM (inactive)
- GI50 [31]: 21.4 µM (inactive)
- GI50 [32]: 18.2 µM (inactive)
- GI50 [33]: 16.1 µM (inactive)
- GI50 [34]: 11.4 µM (inactive)
- GI50 [35]: 9.35 µM (inactive)
- GI50 [36]: 3.8 µM (inactive)
- GI50 [37]: 12.1 µM (inactive)
- GI50 [38]: 26.1 µM (inactive)
- GI50 [39]: 25.8 µM (inactive)
- GI50 [40]: 6.9 µM (inactive)
- GI50 [41]: 15.5 µM (inactive)
- GI50 [42]: 24.4 µM (inactive)
- GI50 [43]: 14.6 µM (inactive)
- GI50 [44]: 25.9 µM (inactive)
- GI50 [45]: 27.8 µM (inactive)
- GI50 [46]: 22.3 µM (inactive)
- GI50 [47]: 15 µM (inactive)
- GI50 [48]: 18.2 µM (inactive)
- GI50 [49]: 16.4 µM (inactive)
- GI50 [50]: 27.7 µM (inactive)
- GI50 [51]: 17.2 µM (inactive)
- GI50 [52]: 20.3 µM (inactive)
